In patent US8420308B2, “Methods and kits for diagnosis of schizophrenia” (Technion R&D Foundation Ltd., priority 2000, dated 2013):
Like-named read-outs stand apart in the source and are kept apart here.

Legend:
[1] = biological target: T1, complex I (Homo sapiens, UniProt P19404+P28331+P49821); experiment: Complex I driven respiration in SH-SY5Y cells; type: cell-based; set-up: endogenous in cells; host or cells: SH-SY5Y; settings: for % Inhibition - complex I: 5 × 1O^−5 M; for % Inhibition - complex I / inhibition at 100 µM: means ± SD of 4-6 detections; for inhibition at 100 µM: 10^−4 M
T1 sequence (P49821 21-464): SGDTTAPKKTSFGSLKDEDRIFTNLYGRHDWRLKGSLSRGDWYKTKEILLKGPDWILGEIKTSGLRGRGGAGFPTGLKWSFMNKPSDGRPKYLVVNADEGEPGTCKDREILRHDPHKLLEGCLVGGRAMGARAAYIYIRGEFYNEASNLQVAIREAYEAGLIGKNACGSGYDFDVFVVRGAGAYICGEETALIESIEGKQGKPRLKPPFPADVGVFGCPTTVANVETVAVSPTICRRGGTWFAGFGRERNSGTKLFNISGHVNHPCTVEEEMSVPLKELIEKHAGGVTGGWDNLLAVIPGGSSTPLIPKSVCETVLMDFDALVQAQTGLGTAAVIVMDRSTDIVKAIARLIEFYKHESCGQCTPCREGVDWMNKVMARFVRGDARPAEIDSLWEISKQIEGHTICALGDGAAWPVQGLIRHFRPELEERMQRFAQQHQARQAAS
T1 sequence (P19404 33-249): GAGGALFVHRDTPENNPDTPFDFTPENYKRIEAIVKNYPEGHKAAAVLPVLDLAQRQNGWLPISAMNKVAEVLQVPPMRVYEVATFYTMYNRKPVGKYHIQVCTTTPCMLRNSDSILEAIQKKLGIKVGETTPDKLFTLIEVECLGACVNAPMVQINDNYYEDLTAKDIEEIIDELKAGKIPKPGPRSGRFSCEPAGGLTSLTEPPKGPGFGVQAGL
T1 sequence (P28331 24-727): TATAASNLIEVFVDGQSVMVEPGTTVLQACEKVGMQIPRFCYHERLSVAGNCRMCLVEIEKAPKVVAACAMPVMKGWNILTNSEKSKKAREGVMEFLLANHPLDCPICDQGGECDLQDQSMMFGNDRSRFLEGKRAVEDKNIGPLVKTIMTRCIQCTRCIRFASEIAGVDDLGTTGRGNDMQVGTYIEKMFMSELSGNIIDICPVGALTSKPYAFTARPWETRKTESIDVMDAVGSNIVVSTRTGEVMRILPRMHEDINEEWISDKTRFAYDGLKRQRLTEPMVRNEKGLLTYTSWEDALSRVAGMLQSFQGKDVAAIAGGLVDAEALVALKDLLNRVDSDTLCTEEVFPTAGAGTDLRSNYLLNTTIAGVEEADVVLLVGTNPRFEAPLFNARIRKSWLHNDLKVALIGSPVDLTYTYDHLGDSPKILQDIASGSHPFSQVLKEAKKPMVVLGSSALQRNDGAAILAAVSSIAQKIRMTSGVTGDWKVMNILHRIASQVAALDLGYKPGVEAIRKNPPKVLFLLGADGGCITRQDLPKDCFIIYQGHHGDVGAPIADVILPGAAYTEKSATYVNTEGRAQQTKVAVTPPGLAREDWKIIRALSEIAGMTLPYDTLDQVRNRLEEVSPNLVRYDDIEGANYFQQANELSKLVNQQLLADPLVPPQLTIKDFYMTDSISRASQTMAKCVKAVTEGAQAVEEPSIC
Text: (§1) The effect of antipsychotic drugs on respiration in SH-SY5Y cells was studied.

[2] = biological target: T2, complex II (Homo sapiens, UniProt O14521+P21912+P31040+Q99643); experiment: Complex II driven respiration in SH-SY5Y cells; type: cell-based; set-up: endogenous in cells; host or cells: SH-SY5Y; settings: for inhibition at 50 µM: 5 × 10^−5 M; for inhibition at 50 µM / inhibition at 100 µM: means ± SD of 4-6 detections; for inhibition at 100 µM: 10^−4 M
T2 sequence (P31040 43-664): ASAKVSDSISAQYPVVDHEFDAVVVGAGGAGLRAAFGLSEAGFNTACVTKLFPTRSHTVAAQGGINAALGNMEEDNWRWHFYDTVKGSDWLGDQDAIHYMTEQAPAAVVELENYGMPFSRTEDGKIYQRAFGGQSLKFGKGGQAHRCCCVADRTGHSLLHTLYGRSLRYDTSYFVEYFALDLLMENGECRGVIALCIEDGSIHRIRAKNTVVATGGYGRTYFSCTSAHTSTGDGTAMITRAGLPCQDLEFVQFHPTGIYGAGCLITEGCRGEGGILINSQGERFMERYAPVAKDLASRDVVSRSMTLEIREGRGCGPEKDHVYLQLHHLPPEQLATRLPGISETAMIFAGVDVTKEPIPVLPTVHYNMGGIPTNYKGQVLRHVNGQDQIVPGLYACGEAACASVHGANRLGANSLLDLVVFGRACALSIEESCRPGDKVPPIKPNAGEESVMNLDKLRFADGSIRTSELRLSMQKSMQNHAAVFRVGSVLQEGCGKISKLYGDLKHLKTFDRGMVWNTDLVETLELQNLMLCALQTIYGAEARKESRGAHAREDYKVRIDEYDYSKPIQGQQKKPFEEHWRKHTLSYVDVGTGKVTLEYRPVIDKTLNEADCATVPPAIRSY
T2 sequence (P21912 29-280): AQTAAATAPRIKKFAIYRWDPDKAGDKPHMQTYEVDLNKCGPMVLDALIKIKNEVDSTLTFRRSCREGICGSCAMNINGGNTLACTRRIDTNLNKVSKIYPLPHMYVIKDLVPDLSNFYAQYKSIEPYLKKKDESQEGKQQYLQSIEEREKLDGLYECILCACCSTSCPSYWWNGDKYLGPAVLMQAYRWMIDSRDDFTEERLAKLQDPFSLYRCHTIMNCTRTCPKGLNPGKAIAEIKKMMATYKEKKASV
T2 sequence (Q99643 30-169): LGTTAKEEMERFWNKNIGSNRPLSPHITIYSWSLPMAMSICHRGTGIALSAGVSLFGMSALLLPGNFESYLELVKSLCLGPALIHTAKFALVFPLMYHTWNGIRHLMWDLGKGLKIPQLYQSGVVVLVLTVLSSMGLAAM
T2 sequence (O14521 57-159): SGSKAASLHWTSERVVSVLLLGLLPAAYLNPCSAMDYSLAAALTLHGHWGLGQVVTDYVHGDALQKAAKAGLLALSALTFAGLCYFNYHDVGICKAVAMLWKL
Text: as §1

[3] = biological target: T1, complex I; settings: permeabilized cells, 37° C., 10 minutes of incubation; means±SD of 3 experiments
Experimental: (§2) Respiration rate was determined polarographically using a thermostatically controlled (37° C.) Clark oxygen electrode after 10 minutes of incubation. Respiration rates for each enzyme of the respiratory chain were assessed after the permeabilization of cellular membrane, with 0.001% digitonin followed by the addition of the following substrates and inhibitors: […] plus malate for complex I induced respiration; succinate, in the presence of rotenone and ATP for complex II induced respiration, and glycerol-3-phosphate, in the presence of rotenone. […] Results are means±SD of 3 experiments.

[4] = biological target: T2, complex II; settings: succinate in the presence of rotenone and ATP
Experimental: as §2

[5] = biological target: complex III (Homo sapiens, UniProt P00156+P08574+P47985); settings: glycerol-3-phosphate in the presence of rotenone, ATP and malonate
Experimental: as §2

[6] = test system: EBV transformed lymphocytes
Experimental: Lymphocytes were isolated on Ficol and were centrifugated at 270 g for 10 minutes, the cell pellet was infected with 1 ml EBV at 37° C. for 1 h. The sample was then centrifuged at 270 g for 10 minutes to remove the EBV. The infected lymphocytes were-suspended in 5 ml of RPMI 1640 with 20% (v/v) FBS and 1% phytohemagglutinin (PHA) and incubated in a culture flask with culture medium replaced twice a week. Immortalized lymphocytes were then cryopreserved until use in liquid nitrogen.
Respiration was measured polarographically using a thermostatically controlled (37° C.) Clark oxygen electrode after 10 minutes of incubation. The respiration rates were assessed after the permeabilization of cellular membrane with 0.001% digitonin and the addition of glutamate+malate

[7] = biological target: T3, mitochondrial complex I (NADH ferricyanide reductase) (Homo sapiens, UniProt P19404+P28331+P49821); experiment: Dopamine inhibition of NADH-ferricyanide reductase (complex I) activity in platelet mitochondria; type: biochemical; settings: platelet mitochondrial preparation
T3 construct: an enriched mitochondrial fraction was isolated on percoll as described previously; from tissue; host or cells: mitochondria-enriched fraction of blood platelets, disrupted by freeze-thaw or digitonin
T3 sequence (P49821 21-464): as the sequence (P49821 21-464) above
T3 sequence (P19404 33-249): as the sequence (P19404 33-249) above
T3 sequence (P28331 24-727): as the sequence (P28331 24-727) above

[8] = biological target: T4, NADH CoQ reductase (complex I) (Homo sapiens, UniProt P19404+P28331+P49821); experiment: NADH-CoQ reductase activity in platelet mitochondria; type: biochemical; settings: 10 μM rotenone; read-out: Residual activity of NADH CoQ reductase in the presence of rotenone
T4 construct: an enriched mitochondrial fraction was isolated on percoll as described previously; from tissue; host or cells: mitochondria-enriched fraction of blood platelets, disrupted by freeze-thaw or digitonin
T4 sequence (P28331 24-727): as above
T4 sequence (P49821 21-464): as the sequence (P49821 21-464) above
T4 sequence (P19404 33-249): as the sequence (P19404 33-249) above
Experimental: Blood (40-80 ml) was collected from the cubital vein without tourniquet between 8:00 and 10:00 a.m., mixed 9:1 with 3.8% (w/v) tri-sodium citrate, and platelet-rich plasma (PRP) separated at room temperature by centrifugation at 200×g for 20 min. Platelets were isolated and washed with Tyrode's buffer pH 7.4 containing 1 mM EDTA as described previously (Krige et al., 1992). The platelet pellet was gently resuspended in ice cold 10 mM Tris buffer pH 7.4 containing 250 mM sucrose and 1 mM EDTA and disrupted by a Dounce A homogenizer (20-30 strokes). The breakdown of the platelets was verified by light microscopy. The homogenate was centrifuged at 1000×g at 4° C. for 20 min to remove unbroken cells. The supernatant, containing the cytoplasmic extract was centrifuged at 12,000×g at 4° C. For 15 min and an enriched mitochondrial fraction was isolated on percoll as described previously (Ben-Shachar et al., 1995; Gavin et al., 1990; McComark and Denton, 1989). […] The final preparation was immediately stored at −70° C. until use.
Mitochondrial respiratory chain enzymes activity was assayed blindly and in triplicate after two cycles of freezing and thawing in a final volume of 1 ml at 25° C. by standard techniques. […]
Results from both assays for each sample are expressed as the difference between reductases activities in the absence and the presence of the relevant inhibitors.

| Structure (SMILES) | inhibition at 50 µM [2] [%] | inhibition at 100 µM [2] [%] | % Inhibition - complex I [1] [%] | inhibition at 100 µM [1] [%] | also measured |
| --- | --- | --- | --- | --- | --- |
| NCCc1ccc(O)c(O)c1 [Dopamine] |  |  |  |  | Inhibition of respiration through complex I [3]: 33.3±0.07%; Inhibition of respiration through complex II [4]: not through complex II; Inhibition of respiration through complex III [5]: not through complex II and III; Inhibition by DA in schizophrenic patients relative to control subjects ([6]; EBV transformed lymphocytes): higher by two fold; Inhibition of respiration by DA ([6]; lymphoblasts of control subjects (n=7)): 11.4±7.2%; Inhibition of respiration by DA ([6]; lymphoblasts of schizophrenic patients (n=7)): 26.8±8.6% |
| O=C(CCCN1CCC(O)(c2ccc(Cl)cc2)CC1)c1ccc(F)cc1 [Haloperidol] | 0.7 ± 0.7 | 2.9 ± 1.8 | 27.2 ± 4.7 | 47.6 ± 10 | Effect on complex I driven mitochondrial respiration (in words) [1]: specifically inhibit complex I driven mitochondrial respiration; Effect on respiration through complex II (in words) [2]: no effect |
| CN1CCN(C2=Nc3cc(Cl)ccc3Nc3ccccc32)CC1 [Clozapine] | 10.9 ± 1.6 | 2.6 ± 2.4 | 31.2 ± 5.6 | 39.9 ± 20.8 |  |
| C=C(C)[C@H]1Cc2c(ccc3c2O[C@@H]2COc4cc(OC)c(OC)cc4[C@@H]2C3=O)O1 [rotenone] |  |  |  |  | Effect on NADH ferricyanide reductase activity [7]: no effect; remaining activity at 10 µM [8]: 5 to 15% |

Continued, in another order:

| inhibition at 50 µM [2] [%] | inhibition at 100 µM [2] [%] | Structure (SMILES) | % Inhibition - complex I [1] [%] | inhibition at 100 µM [1] [%] | also measured |
| --- | --- | --- | --- | --- | --- |
| 15 ± 9.2 | 25.3 ± 0.2 | CNCCC(Oc1ccc(C(F)(F)F)cc1)c1ccccc1 (centres unmarked) [Fluoxetine] | 15.7 ± 25.5 | 29.2 ± 22.7 |  |
| 6.6 ± 3.5 | 14.9 ± 2.1 | CN(C)CCCN1c2ccccc2Sc2ccc(Cl)cc21 [Chlorpromazine] | 20.9 ± 18.1 | 43.8 ± 17.3 | Effect on complex I driven mitochondrial respiration (in words) [1]: specifically inhibit complex I driven mitochondrial respiration; Effect on respiration through complex II (in words) [2]: no effect |
| 11 ± 1.2 | 22.1 ± 18 | CN(C)CCCN1c2ccccc2CCc2ccc(Cl)cc21 [Anafranil] | 13.0 ± 11.0 | 32.1 ± 8.8 |  |
